Reference: ChEMBL document CHEMBL1151343, “Antitumor plants. X. Constituents of Nectandra rigida” (1980)
Values after ≈ are worked out from the molar mass of the structure shown.

Tested on: KB
Test: Cytotoxicity against human KB cells
Assay type: functional
Conditions: read-out: ED50 (the source's name)

Structure (SMILES): C/C=C/c1cc(OC)c2c(c1)[C@H](C)[C@@H](c1ccc(O)c(OC)c1)O2 [LICARIN A]
- EC50: 7 µg/mL (≈ 21.4 µM)
